Data taken from US20050033056A1, “Hydroxylated indole derivatives and uses thereof” (priority 2001, published 2005).

Target: CYP3A4 (Homo sapiens, UniProt P08684)
Experiment: CYP inhibition in HLM: R-warfarin 10-hydroxylation
Type: in vitro ADME
Parameters: tissue Gentest Corp. (Woburn, Mass.); host or cells: pooled human liver microsomes
Settings: 10 or 50 μM
Protocol: The incubations were carried out in test tubes (12.0×75 mm). The incubation mixtures (250 μL) contained 0.5 mg of HLM protein, 50 (CYP1A2 and CYP2E1) or 25 (CYP2C9, CYP2C19, CYP2D6 and CYP3A4) pmol of recombinant human CYPs, Compound 1 (10 or 50 μM), probe substrate (R—, S-warfarin, chlorzoxazone, S-mephenyloin, or bufuralol) at different concentrations, and 0.5 mg of NADPH in 50 mM Tris buffer containing 15 mM MgCl2 (pH 7.4). Compound 1 was added to the reaction mixture 5 minutes prior to the addition of the probe substrate. […]
The quantification was based on the calibration curves, and the quality control (QC) samples were applied to ensure the quality of the experiments. […]
1. CYP1A2/2C9/3A4-mediated warfarin 6-, 7-, 8-, and 10-hydroxylation (Zhang et al., Drug Metab. Dispos. 23:1339-1346, 1995; Rettie et al., Chem. Res. Toxicol. 5:54-59, 1992; Brian et al., Biochemistry 29:11280-11292, 1990): Hewlett Packard 1100 HPLC system (Waldbronn, Germany) comprised a binary pump, an autosampler, a column compartment unit, a photodiode array detector (PDA), and a fluorescence detector. […] The warfarin metabolites, 6-, 8-, and 10-hydroxywarfarin, were monitored by UV at 313 nm, and 7-hydroxywarfarin by fluorescence at Ex320 nm/Em380 nm. […]

Sequence of CYP3A4 (P08684 whole entry): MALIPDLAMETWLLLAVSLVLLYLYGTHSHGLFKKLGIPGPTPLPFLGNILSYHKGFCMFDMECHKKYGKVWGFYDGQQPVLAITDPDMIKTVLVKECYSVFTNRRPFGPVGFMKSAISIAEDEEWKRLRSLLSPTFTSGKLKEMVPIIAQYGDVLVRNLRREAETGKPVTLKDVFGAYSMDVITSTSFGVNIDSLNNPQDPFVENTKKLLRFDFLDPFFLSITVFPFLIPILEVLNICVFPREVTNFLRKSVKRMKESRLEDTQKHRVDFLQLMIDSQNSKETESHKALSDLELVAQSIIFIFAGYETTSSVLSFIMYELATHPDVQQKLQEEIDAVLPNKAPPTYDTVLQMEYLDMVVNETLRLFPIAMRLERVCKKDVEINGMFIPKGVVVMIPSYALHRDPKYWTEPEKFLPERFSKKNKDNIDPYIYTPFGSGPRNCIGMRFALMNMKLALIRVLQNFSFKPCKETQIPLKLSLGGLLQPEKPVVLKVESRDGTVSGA

CNC(=O)Cc1ccc2ccn(C3CCN(CCc4ccccc4F)CC3)c2c1 [Compound 1, N-methyl-[1-[1-(2-fluorophenethyl)piperidine-4-yl]-1H-indol-6-yl] acetamide]
inhibitory effect on CYP3A4 activity (in words): no inhibitory effect
